# Measured values published in patent US7767679B2, “Sulfonylamino-derivatives as novel inhibitors of histone deacetylase” (Janssen Pharmaceutica N.V., priority 2002, dated 2010).
# Like-named read-outs stand apart in the source and are kept apart here.
# What was measured:
# [1] = system: A2780 ovarian carcinoma cells; experiment: Antiproliferative activity on A2780 cells (MTT); type: cell-based; settings: Homo sapiens, 96 h, four days of incubation, read-out: Cellular activity pIC50 (converted)
# Procedure: Cellular activity of the compounds of formula (I) was determined on A2780 tumour cells using a colorimetric assay for cell toxicity or survival (Mosmann Tim, Journal of Immunological Methods 65: 55-63, 1983)(see example C.2).
# All compounds tested were dissolved in DMSO and further dilutions were made in culture medium. Final DMSO concentrations never exceeded 0.1% (v/v) in cell proliferation assays. Controls contained A2780 cells and DMSO without compound and blanks contained DMSO but no cells. MTT was dissolved at 5 mg/ml in PBS. A glycine buffer comprised of 0.1 M glycine and 0.1 M NaCl buffered to pH 10.5 with NaOH (1 N) was prepared (all reagents were from Merck).
# The human A2780 ovarian carcinoma cells (a kind gift from Dr. T. C. Hamilton [Fox Chase Cancer Centre, Pennsylvania, USA]) were cultured in RPMI 1640 medium supplemented with 2 mM L-glutamine, 50 μg/ml gentamicin and 10% fetal calf serum. Cells were routinely kept as monolayer cultures at 37° C. in a humidified 5% CO2 atmosphere. Cells were passaged once a week using a trypsin/EDTA solution at a split ratio of 1:40. All media and supplements were obtained from Life Technologies. Cells were free of mycoplasma contamination as determined using the Gen-Probe Mycoplasma Tissue Culture kit (supplier: BioMérieux).
# Cells were seeded in NUNC™ 96-well culture plates (Supplier: Life Technologies) and allowed to adhere to the plastic overnight. Densities used for plating were 1500 cells per well in a total volume of 200 μl medium. After cell adhesion to the plates, medium was changed and drugs and/or solvents were added to a final volume of 200 μl. Following four days of incubation, medium was replaced by 200 μl fresh medium and cell density and viability was assessed using an […] assay. To each well, 25 μl μl MTT solution was added and the cells were further incubated for 2 hours at 37° C. The medium was then carefully aspirated and the blue MT-formazan product was solubilized by addition of 25 μl glycine buffer followed by 100 μl of DMSO. […] Within an experiment, the results for each experimental condition are the mean of 3 replicate wells. For initial screening purposes, compounds were tested at a single fixed concentration of 10^−6 M. For active compounds, the experiments were repeated to establish full concentration-response curves. For each experiment, controls (containing no drug) and a blank incubation (containing no cells or drugs) were run in parallel. The blank value was subtracted from all control and sample values. For each sample, the mean value for cell growth (in absorbance units) was expressed as a percentage of the mean value for cell growth of the control. […] Herein the effects of test compounds are expressed as pIC50 (the negative log value of the IC50-value).
# [2] = not given; remark: listed apart in the source
# [3] = molecular target: histone deacetylase (HeLa nuclear extracts); experiment: In vitro assay for inhibition of histone deacetylase; type: biochemical; settings: HeLa nuclear extracts 60 μg/ml, [3H]acetylated histone H4 peptide substrate, 30 min
# Procedure: The in vitro assay for inhibition of histone deacetylase (see example C.1) measures the inhibition of HDAC enzymatic activity obtained with the compounds of formula (I).
# HeLa nuclear extracts (supplier: Biomol) were incubated at 60 μg/ml with 2×10^−8 M of radiolabeled peptide substrate. As a substrate for measuring HDAC activity a synthetic peptide, i.e. the amino acids 14-21 of histone H4, was used. The substrate is biotinylated at the NH2-terminal part with a 6-aminohexanoic acid spacer, and is protected at the COOH-terminal part by an amide group and specifically [^3H]acetylated at lysine 16. The substrate, biotin-(6-aminohexanoic)Gly-Ala-([^3H]-acetyl-Lys-Arg-His-Arg-Lys-Val-NH2), was added in a buffer containing 25 mM Hepes, 1 M sucrose, 0.1 mg/ml BSA and 0.01% Triton X-100 at pH 7.4. After 30 min the deacetylation reaction was terminated by the addition of HCl and acetic acid. (final concentration […] respectively). After stopping the reaction, the free ^3H-acetate was extracted with ethylacetate. After mixing and centrifugation, the radioactivity in an aliquot of the upper (organic) phase was counted in β-counter.
# For each experiment, controls (containing HeLa nuclear extract and DMSO without compound), a blank incubation (containing DMSO but no HeLa nuclear extract or compound) and samples (containing compound dissolved in DMSO and HeLa nuclear extract) were run in parallel. In first instance, compounds were tested at a concentration of 10^−5M. […] In each test the blank value was substracted from both the control and the sample values. The control sample represented 100% of substrate deactylation. For each sample the radioactivity was expressed as a percentage of the mean value of the controls. […] Herein the effects of test compounds are expressed as pIC50 (the negative log value of the IC50-value).
# [4] = Kinetic solubility in aqueous media; type: physicochemical; settings: aqueous buffer, kinetic from dmso stock; phosphate citrate buffer pH 7.4, turbidity by nephelometer; read-out: Solubility Score
# Procedure: Kinetic solubility in aqueous media measures the ability of a compound to stay in aqueous solution upon dilution (see example C.3).
# DMSO-stock solutions are diluted with a single aqueous buffer solvent in 3 consecutive steps. For every dilution turbidity is measured with a nephelometer.
# In the first dilution step, 10 μl of a concentrated stock-solution of the active compound, solubilized in DMSO (5 mM), was added to 100 μl phosphate citrate buffer pH 7.4 and mixed. In the second dilution step, an aliquot (20 μl) of the first dilution step was further dispensed in 100 μl phosphate citrate buffer pH 7.4 and mixed. Finally, in the third dilution step, a sample (20 μl) of the second dilution step was further diluted in 100 μl phosphate citrate buffer pH 7.4 and mixed. All dilutions were performed in 96-well plates. Immediately after the last dilution step the turbidity of the three consecutive dilution steps were measured with a nephelometer. Dilution was done in triplicate for each compound to exclude occasional errors. Based on the turbidity measurements a ranking is performed into 3 classes. Compounds with high solubility obtained a score of 3 and for this compounds the first dilution is clear. Compounds with medium solubility obtained a score of 2. For these compounds the first dilution is unclear and the second dilution is clear. […] The solubility of 9 compounds was measured.
Compound,"% metabolism (human, 15 min, 5 μM)",IC50 [1],melting point [2],Enzyme activity pIC50 [3],solubility [4],"% metabolism (15 min incubation with active microsomes (1 mg/ml), compound 5 μM)"
COc1cc(N)c(Cl)cc1C(=O)NC1CCN(CCCOc2ccc(F)cc2)CC1OC (stereo not shown) [Cisapride],45%,,,,,
O=C(NO)c1cnc(N2CCC(NS(=O)(=O)c3ccc4ccccc4c3)CC2)nc1 [Co. No. 2],,27.1 nM,200 °C,6.104,> 455 µM,
O=C(NO)c1ccc(N2CCC(CNS(=O)(=O)c3ccc4ccccc4c3)CC2)nc1 [Co. No. 4],,1360 nM,173 °C,7.574,< 76 µM,
O=C(NO)c1cnc(N2CCC(CNS(=O)(=O)c3ccc4ccccc4c3)CC2)nc1 [Co. No. 5],,369 nM,,8.123,< 76 µM,
O=C(NO)c1cnc(N2CC[C@H](NS(=O)(=O)c3ccc4ccccc4c3)[C@H](CO)C2)nc1 [Co. No. 7],,9620 nM,203 °C,7.533,> 455 µM,
O=C(NO)c1cnc(N2CC[C@H](CNS(=O)(=O)c3ccc4ccccc4c3)[C@H](O)C2)nc1 [Co. No. 8],,3040 nM,224 °C,7.355,> 455 µM,
O=C(NO)c1cnc(N2CCC(O)(CNS(=O)(=O)c3ccc4ccccc4c3)CC2)nc1 [Co. No. 9],,> 10000 nM,228 °C,7.579,76 to 455 µM,
O=C(NO)c1ccc(N2CCC(NS(=O)(=O)c3ccc(-c4ccccc4)cc3)CC2)nc1 [compound 15],,1240 nM,,7.413,< 76 µM,
CCCO [propanol],,,,,,25%
